Test results from PubChem BioAssay (NCI).
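Results reflect a 48-hour exposure of cells in 96-well plates to compound at five concentrations. At the GI50, growth is halved. At the TGI there is no net growth.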

Columns and labels:
Assay in all cases: NCI tumour cell line growth inhibition, 48 h
[1] = tested on: UACC-62 melanoma
[2] = tested on: HCT-116 colon
[3] = tested on: SR leukemia
[4] = tested on: OVCAR-8 ovarian
[5] = tested on: LOX IMVI melanoma
[6] = tested on: IGROV1 ovarian
[7] = tested on: TK-10 renal
[8] = tested on: SN12C renal
[9] = tested on: NCI-H460 lung
[10] = tested on: SK-OV-3 ovarian
[11] = tested on: SK-MEL-28 melanoma
[12] = tested on: NCI/ADR-RES ovarian
[13] = tested on: SF-539 CNS
[14] = tested on: DU-145 prostate
[15] = tested on: COLO 205 colon
[16] = tested on: NCI-H226 lung
[17] = tested on: MDA-MB-435
[18] = tested on: OVCAR-5 ovarian
[19] = tested on: SK-MEL-5 melanoma
[20] = tested on: SK-MEL-2 melanoma
[21] = tested on: NCI-H522 lung
[22] = tested on: MCF7 breast
[23] = tested on: HT29 colon
[24] = tested on: UACC-257 melanoma
[25] = tested on: NCI-H23 lung
[26] = tested on: HOP-62 NSCLC
[27] = tested on: A549 NSCLC
[28] = tested on: M14 melanoma
[29] = tested on: T-47D breast
[30] = tested on: SF-268 CNS
[31] = tested on: K-562 leukemia
[32] = tested on: HOP-92 NSCLC
[33] = tested on: SF-295 CNS
[34] = tested on: HL-60(TB) leukemia
[35] = tested on: HS 578T breast
[36] = tested on: HCT-15 colon
[37] = tested on: UO-31 renal
[38] = tested on: OVCAR-4 ovarian
[39] = tested on: OVCAR-3 ovarian
[40] = tested on: HCC-2998 colon
[41] = tested on: U251 CNS
[42] = tested on: A498 renal
[43] = tested on: MOLT-4 leukemia
[44] = tested on: BT-549 breast
[45] = tested on: CAKI-1 renal
[46] = tested on: SW-620 colon
[47] = tested on: SNB-19 CNS
[48] = tested on: KM12 colon
[49] = tested on: SNB-75 CNS
[50] = tested on: 786-0 renal
[51] = tested on: RXF 393 renal
[52] = tested on: EKVX NSCLC
[53] = tested on: RPMI-8226 leukemia
[54] = tested on: CCRF-CEM leukemia
[55] = tested on: MALME-3M melanoma
[56] = tested on: PC-3 prostate
[57] = tested on: ACHN renal
[58] = tested on: MDA-MB-231 breast

## C=CCNCCN1C(=O)c2ccc3c4c(ccc(c24)C1=O)C(=O)N(CCNCC=C)C3=O
[1]
  GI50: 0.895 µM
  TGI: 1.68 µM
[2]
  GI50: 0.5 µM
  TGI: 50 µM
[3]
  GI50: 0.811 µM
  TGI: 2.92 µM
[4]
  GI50: 0.421 µM
  TGI: 4 µM
[5]
  GI50: 0.728 µM
  TGI: 1.77 µM
[6]
  GI50: 0.504 µM
  TGI: 1.67 µM
[7]
  GI50: 1.11 µM
  TGI: 3.43 µM
[8]
  GI50: 0.489 µM
  TGI: 1.26 µM
[9]
  GI50: 0.258 µM
  TGI: 1.73 µM
[10]
  GI50: 1.05 µM
  TGI: 2.8 µM
[11]
  GI50: 1.18 µM
  TGI: 2.68 µM
[12]
  GI50: 0.995 µM
  TGI: 5.29 µM
[13]
  GI50: 0.847 µM
  TGI: 1.96 µM
[14]
  GI50: 0.663 µM
  TGI: 1.36 µM
[15]
  GI50: 0.16 µM
  TGI: 0.407 µM
[16]
  GI50: 0.493 µM
  TGI: 1.46 µM
[17]
  GI50: 0.745 µM
  TGI: 1.7 µM
[18]
  GI50: 1.04 µM
  TGI: 3.09 µM
[19]
  GI50: 0.584 µM
  TGI: 1.2 µM
[20]
  GI50: 0.891 µM
  TGI: 1.74 µM
[21]
  GI50: 0.616 µM
  TGI: 1.54 µM
[22]
  GI50: 0.225 µM
  TGI: 0.983 µM
[23]
  GI50: 0.193 µM
  TGI: 0.769 µM
[24]
  GI50: 0.786 µM
  TGI: 1.49 µM
[25]
  GI50: 0.938 µM
  TGI: 2.1 µM
[26]
  GI50: 0.712 µM
  TGI: 2.7 µM
[27]
  GI50: 0.418 µM
  TGI: 1.67 µM
[28]
  GI50: 0.918 µM
  TGI: 1.8 µM
[29]
  GI50: 1.2 µM
  TGI: 2.65 µM
[30]
  GI50: 0.753 µM
  TGI: 3.54 µM
[31]
  GI50: 0.534 µM
  TGI: 3.24 µM
[32]
  GI50: 1.81 µM
  TGI: 5.56 µM
[33]
  GI50: 0.397 µM
  TGI: 1.28 µM
[34]
  GI50: 0.86 µM
  TGI: 2.21 µM
[35]
  GI50: 1.76 µM
  TGI: 8.71 µM
[36]
  GI50: 0.457 µM
  TGI: 1.66 µM
[37]
  GI50: 0.716 µM
  TGI: 1.69 µM
[38]
  GI50: 0.315 µM
  TGI: 1 µM
[39]
  GI50: 0.99 µM
  TGI: 3.27 µM
[40]
  GI50: 0.766 µM
  TGI: 1.55 µM
[41]
  GI50: 0.526 µM
  TGI: 1.26 µM
[42]
  GI50: 1.14 µM
  TGI: 3.57 µM
[43]
  GI50: 0.427 µM
  TGI: 1.63 µM
[44]
  GI50: 2.91 µM
  TGI: 10.2 µM
[45]
  GI50: 0.63 µM
  TGI: 1.84 µM
[46]
  GI50: 0.402 µM
  TGI: 1.63 µM
[47]
  GI50: 0.65 µM
  TGI: 1.35 µM
[48]
  GI50: 0.59 µM
  TGI: 1.82 µM
[49]
  GI50: 0.874 µM
  TGI: 1.67 µM
[50]
  GI50: 1.11 µM
  TGI: 2.8 µM
[51]
  GI50: 0.696 µM
  TGI: 1.48 µM
[52]
  GI50: 0.557 µM
  TGI: 1.51 µM
[53]
  GI50: 0.953 µM
  TGI: 4.23 µM
[54]
  GI50: 0.708 µM
  TGI: 3.44 µM
[55]
  GI50: 0.343 µM
  TGI: 0.996 µM
[56]
  GI50: 1.34 µM
  TGI: 16.6 µM
[57]
  GI50: 0.407 µM
  TGI: 2.52 µM
[58]
  GI50: 1.26 µM
  TGI: 4.71 µM
